In publication PMC5519620 (Frontiers in Cellular Neuroscience, 2017):
Entries after “also recorded” stand apart in the source; their conditions may differ.

Legend:
[1] = tested on: rat GABAB receptor (GABAB1/GABAB2); assay type: binding
[2] = tested on: rat GABAB receptor (GABAB1a/GABAB2); assay type: cell-based
[3] = tested on: human α9α10 nAChR; conditions: cited from earlier work
[4] = tested on: N-type calcium channels in dorsal root ganglion neurons; conditions: cited from earlier work
[5] = tested on: neuropathic pain models; conditions: in vivo; cited from earlier work
[6] = tested on: GABAB receptor; conditions: cited from earlier work
[7] = tested on: GABAB receptor; conditions: cited from earlier work; remark: listed apart in the source
[8] = tested on: N-type calcium channels; conditions: cited from earlier work

Vc1.1
Displacement of CGP54626-Red [1]: No displacement; also recorded: None of these conotoxins prevented the binding of the competitive orthosteric antagonist CGP54626-Red
GABABR activation (BRET change) [2]: do not activate GABABRs expressed in HEK cells; also recorded: no effect; also recorded: neither Vc1.1 nor any of the examined conotoxins activated the GABABR
Potency human vs. rat α9α10 nAChR [3]: much less potent at the human vs. rat α9α10 nAChR
Block of N-type calcium channels [4]: blocks N-type calcium channels in dorsal root ganglion; also recorded: block N-type calcium channels in DRG neurons
Effect of G-protein signalling inhibition on N-type channel block [4]: block of N-type calcium channels was eliminated by pertussis toxin, intracellular GDPβS, or an inhibitor of pp60c-src tyrosine kinase
Analgesic effect [5]: analgesic activity in several models of neuropathic pain
Competition with [3H]CGP54626 [6]: did not compete for binding with [3H]CGP54626
Competition with CGP54626 [7]: did not compete for binding
N-type calcium channel block in α9 KO neurons [8]: block N-type calcium channels in cultured neurons from α9 KO mice
